Results on one compound are retold here after US20090203667A1, “PENTADIENAMIDE DERIVATIVES” (Kyowa Hakko Kirin Co., Ltd., priority 2006, published 2009).

Series [1] concerns entrapment nerve injury rat. The series can be described thus: Neuropathic pain inhibitory activity in entrapment nerve injury rat (von Frey pain threshold). It is filed as in vivo. The note with it: orally administered, dose of 20 mg/kg or less, measured after 1 hour, von Frey filaments. From the text:
Neuropathic Pain Inhibitory Activity of Compound in Entrapment Nerve Injury Rat
The method of Mosconi, Kruger et al. (Pain, vol. 64, pp. 37-57 (1996)) was modified partially and an entrapment nerve injury rat was produced.
By using a male Crl:CD(SD) rat, the sciatic nerve of the left hind limb was exfoliated under pentobarbital anesthesia, and the exfoliated region was covered with a polyethylene tube (trade name: Intramedic, size: PE-60, manufactured by Becton Dickinson and Company) with a length of 2 mm. On days 14 to 21 after the surgery, the rat was placed in a stainless-steel connected cage (750 mm (length)×210 mm (depth)×170 mm (height)) consisting of 5 cages connected in a row and having a mesh floor and was acclimated to the environment for at least 20 minutes, and then, the pain was evaluated.
The pain was evaluated using von Frey filaments (trade name: touch test sensory evaluator, Model number: model 58011, manufactured by Muromachi Kikai), and the results were calculated as a pain threshold. That is, by using a von Frey filament of different stimulation intensity, stimulation was given to the paw at the injured side of the entrapment nerve injury rat, and the stimulation intensity at which the paw was withdrawn was obtained. Then, the pain threshold (paw withdrawal threshold) (g) was calculated by the up down method of Dixon [Annual Review of Pharmacology and Toxicology, vol. 20, pp. 441-462 (1980)]. Incidentally, the pain threshold of a normal rat was from 10 to 12 g on an average.
In the evaluation of the test compound, a rat having a 50% pain threshold of less than 4 g was used, and the test compound was dissolved in a 0.5% aqueous methyl cellulose solution and orally administered at a dose of 5 mL/kg. After 1 hour, by using von Frey filaments, the pain threshold was measured.

Series [2] addresses T1, vanilloid receptor (TRPV1) (Rattus norvegicus, UniProt O35433).
T1 construct: The spinal cord was extirpated from an SPF/VAF rat; from tissue; host or cells: rat spinal cord membrane specimen (SPF/VAF rat, Charles River Laboratories Japan Inc.)
The series can be described thus: [3H]Resiniferatoxin ([3H]RTX) binding experiment using rat spinal cord. Particulars: rat spinal cord membrane specimen, 37° C., 60 minutes; read-out: IC50 of [3H]RTX specific binding. The procedure: [^3H]Resiniferatoxin ([^3H]RTX) Binding Experiment Using Rat Spinal Cord
The spinal cord was extirpated from an SPF/VAF rat (Charles River Laboratories Japan Inc.) and homogenized in an ice-cooled homogenization buffer (10 mmol/L HEPES/NaOH, 5 mmol/L KCl, 5.8 mmol/L NaCl, 2 mmol/L MgCl2, 0.75 mmol/L CaCl2, 12 mmol/L glucose, 137 mmol/L sucrose, pH 7.4). The resulting homogenate was centrifuged at 1000 g for 10 minutes at 4° C. The supernatant was centrifuged at 35000 g for 30 minutes at 4° C. The obtained precipitate was suspended in the homogenization buffer. The suspension was used as a tissue membrane specimen, and the protein concentration was determined using a protein assay staining solution (Bio-Rad Laboratories, US). The thus prepared specimen was stored at −80° C.
The known method [The Journal of Pharmacology and Experimental Therapeutics, 267: 728-733 (1993)] was modified and the modified method was performed. 400 μL of a membrane specimen solution (protein amount: about 50 μg) obtained by diluting the prepared specimen with an assay buffer (10 mmol/L HEPES/NaOH, 5 mmol/L KCl, 5.8 mmol/L NaCl, 2 mmol/L MgCl2, 0.75 mmol/L CaCl2, 12 mmol/L glucose, 137 mmol/L sucrose, 0.25 mg/mL bovine serum albumin, pH 7.4), 50 μL of a test compound solution, and 50 μL of [^3H]RTX (PerkinElmer Life Sciences Inc., US) were mixed and the mixture was incubated at 37° C. for 60 minutes. The reaction mixture was transferred on ice, and 50 μL of previously ice-cooled 2 mg/mL α1 acid glycoprotein (Sigma) was added thereto, and then, the mixture was centrifuged at 12000 g for 15 minutes at 4° C. A procedure in which 0.4 mL of the assay buffer was added to the obtained precipitate and the mixture was centrifuged at 12000 g for 15 minutes at 4° C. was performed twice. The precipitate obtained by the centrifugation was suspended in 0.5 mL of a 0.1 mol/L aqueous NaOH solution. 7 mL of Ultima Gold (Packard, US) was added to the suspension, and the radioactivity of the solution was measured using a liquid scintillation counter (LS6500: Beckman Coulter, Inc., US or TRI-CARB 2700TR: Packard, US). The [^3H]RTX binding amount in the presence of 0.1 μmol/L RTX was considered to be non-specific binding, and the specific binding was calculated by subtracting this value from the total amount of [^3H]RTX binding to the membrane specimen. Then, the replacement amount of the [^3H]RTX specific binding in the presence of the compound to the [^3H]RTX specific binding amount in the absence of the compound was calculated in percent. The IC50 value of the compound in this experiment was obtained from a logistic equation.
The logistic equation was fit to the following equation (equation 205 in the program) in the curve regression program XLfit (IDBS Inc.).
Y: Inhibition ratio X: Concentration of test compound

T1 sequence (O35433 whole entry): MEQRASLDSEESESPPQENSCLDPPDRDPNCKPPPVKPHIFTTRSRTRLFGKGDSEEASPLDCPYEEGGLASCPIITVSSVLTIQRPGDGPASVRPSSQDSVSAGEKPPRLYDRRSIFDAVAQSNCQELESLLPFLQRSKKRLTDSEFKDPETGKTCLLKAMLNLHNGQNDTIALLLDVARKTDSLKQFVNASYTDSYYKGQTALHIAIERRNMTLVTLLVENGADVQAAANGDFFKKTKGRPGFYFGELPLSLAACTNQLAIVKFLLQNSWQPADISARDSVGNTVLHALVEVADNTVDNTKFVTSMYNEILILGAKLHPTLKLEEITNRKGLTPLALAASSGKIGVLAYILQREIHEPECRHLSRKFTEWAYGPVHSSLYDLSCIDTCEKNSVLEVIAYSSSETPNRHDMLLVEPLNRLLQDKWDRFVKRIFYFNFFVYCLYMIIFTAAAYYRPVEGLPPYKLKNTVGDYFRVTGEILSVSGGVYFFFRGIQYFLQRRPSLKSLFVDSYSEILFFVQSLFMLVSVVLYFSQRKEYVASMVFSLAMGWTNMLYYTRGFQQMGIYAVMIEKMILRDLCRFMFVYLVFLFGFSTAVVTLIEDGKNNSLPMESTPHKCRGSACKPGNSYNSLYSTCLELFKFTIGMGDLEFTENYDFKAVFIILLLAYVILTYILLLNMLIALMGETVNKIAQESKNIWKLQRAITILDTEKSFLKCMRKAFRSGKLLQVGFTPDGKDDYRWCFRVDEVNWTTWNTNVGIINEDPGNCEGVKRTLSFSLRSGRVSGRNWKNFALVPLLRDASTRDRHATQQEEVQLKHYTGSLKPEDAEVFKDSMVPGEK

For orientation: melting point means the temperature of the solid-liquid transition. The term IC50 denotes the midpoint of a concentration-inhibition curve. `O=C(/C=C/C=C(\c1ccc(F)cc1)c1ccc(C(F)(F)F)cc1)Nc1cccc2cnccc12` [Compound 74, (2E,4Z)-5-(4-Fluorophenyl)-N-(isoquinolin-5-yl)-5-[4-(trifluoromethyl)phenyl]-2,4-pentadienamide] returned a melting point of 142 to 143 °C. In addition, in series [1], the “pain threshold (paw withdrawal threshold)” value is on record as “significantly increases the pain threshold”. Besides, the 50% inhibitory concentration (IC50) in series [2] is < 0.1 µM.
